Read-outs that look alike come from different tables or passages of the source.

Data set [1] deals with human liver microsomes (HLMs). Nature of the data set: Oxidative metabolism of candidate substrates in HLMs (fluorescent product formation). The following applies: for fluorescence activation following oxidative metabolism: 30 min.
Data set [2] is described as follows: Bio-safety (tolerability) assessment of NCN in healthy mice. It is filed as in vivo. How it is done: 1.15. Bio-safety assessment of NCN in healthy mice
Sixteen C57BL/6J mice (8 males and 8 females, 6 weeks) were randomly assigned into two groups (4 males and 4 females). All mice were subjected to adaptive feeding for 7 d before the experiment. NCN was dissolved in 0.5% CMC-Na, and mice were orally administered NCN (100 mg/kg)/0.5% CMC-Na continuously for 14 d. The mice were weighed every day, and their status was observed. After 14 d, blood and tissues from all mice were obtained for bio-safety assessment. Serum ALT, AST, TP, UREA, CREA, TG, Na+, and K+ levels were tested by using a fully automated serum biochemistry analysis (Thermo, USA). Mice organs were weighed and the organ index was calculated, and hematoxylin and eosin (H&E) stains were provided by Shanghai Ruibaohe Biotechnology Co., Ltd. […]

In data set [3] the test system is human recombinant cytochrome P450 enzymes. In words: P450 reaction phenotyping assay. It is filed as biochemical. The following applies: NCN, panel of human P450 enzymes including CYP3A5. The method, then:
(§1) 1.6. P450 reaction phenotyping and chemical inhibition assays
(§2) P450 reaction phenotyping analysis of NCN was determined using a panel of human recombinant cytochrome P450 enzymes, while the inhibitory effects of CYP specific inhibitors on NCN 4-hydroxylation in HLMs were assessed. The final concentration of each human recombinant CYP enzyme in the incubation system was 5 nM. Briefly, each sample was co-incubated with NCN at 37 °C for 30 min, the formation rate of HNCN was determined to assess the metabolic specificity of NCN.
(§3) Gaussian program conducted a GMMX conformational analysis using a DFT/B3LYP/6-31G(d) pre-optimized 3D geometry. The resulting GMMX conformers were optimized at B3LYP/6-31G(d) level. Moreover, all conformers were real minima, as no imaginary vibrational frequencies were found. The energy ranking was performed to find the minimum energy conformer. The minima conformer was optimized at B3LYP /6-311G(d,p) level. The molecular orbital energy levels and electrostatic potential (ESP) were calculated at the DFT/B3LYP/6-311G(d,p) level.
(§4) Frontier orbital and ESP were depicted by Multiwfn (Lu and Chen 2011) and VMD […]
(§5) 1.8. Enzyme kinetic analysis
(§6) The kinetic parameters of NCN 4-hydroxylation in HLMs were determined by performing a set of hydroxylation kinetic assays. Kinetic parameters (K m and Vmax) for NCN 4-hydroxylation were fitted by the following equation (a): […]

The nature of data set [4]: Oral bioavailability of NCN (pharmacokinetics). The following applies: Sprague-Dawley, rat, plasma, rats; for AUC(0-inf) / Cmax / Tmax / half-life: n = 5. The class given is in vivo, SD rats. How it is done: precipitate the protein. After centrifugation again, the supernatant was determined to
quantify the levels of HNCN.
1.17. Oral bioavailability of NCN
intravenous injection NCN group).
h, and 24 h, respectively.
8 h, 12 h, and 24 h, respectively. […]

Data set [5] has as its target T1, human liver microsomes (HLMs) (Homo sapiens, UniProt P08684).
T1 construct: tissue Bioreclamation IVT lot No. X008067; host or cells: pooled human liver microsomes from 50 donors
In words: Enzyme kinetic analysis of NCN 4-hydroxylation in HLMs. It is filed as biochemical. The following applies: Vmax/Km, enzyme source HLMs. The method, then:
as §1, §2, §3, §4, §5, §6

The subject of data set [6] is NCM460 cells. In words: Cell-membrane permeability assay in NCM460 cells. It is filed as in vitro ADME.
The target of data set [7] is T2, human P-glycoprotein (Homo sapiens, UniProt P08183).
T2 construct: expressed in transfected cells; host or cells: MDR1-MDCK
In words: P-gp transporter assay in MDR1-MDCK cells with or without verapamil. The following applies: for intracellular level in the presence of verapamil: MDR1-MDCK cells, with versus without verapamil. It is filed as in vitro ADME. How it is done: 1.10. P-gp transporter assay
To test whether NCN is pumped extracellularly by P-gp, MDR1-MDCK cells (a transfected cell line overexpressing human P-glycoprotein) were seeded in 96-well plates supplemented with DMEM media with 10% FBS. Then, verapamil (a potent P-gp inhibitor, 100 μL) was added to 96-well plates and cultured for 15 min. After that, the cells were treated with NCN/Rhodamine 123 (100 μL) for 2 h. The cells were collected and washed with PBS, and lysed by 200 µL ice-cold acetonitrile. Next, the cell supernatant was collected by centrifugation at 20,000 g, 4 °C for 30 min. The content of NCN in the cells was determined. […]

The subject of data set [8] is human liver microsomes (HLMs).
Data set [9] relates to Hep3B cells. Nature of the data set: CCK-8 cytotoxicity assay. It is filed as cell-based. In general terms: Tetrazolium dyes change colour on reduction, which living cells bring about.
Data set [10] can be described thus: In vivo inhibitory effect of ketoconazole on NCN pharmacokinetics. The following applies: rats; for AUC(0-inf) / Cmax / half-life: rat, plasma, po, 20 mg/kg, NCN 20 mg/kg i.g. How it is done: Twelve rats were randomly divided into two groups (CMC-Na + NCN group, […]
ketoconazole + NCN group).
50 mg/kg, respectively. Firstly, blank blood samples were collected. Then, ketoconazole or CMC-Na (control group) was administered orally. After 30 min, NCN was administered orally and blood samples were collected at the following time points […]
5-fold volume of acetonitrile.
1.21. Statistical analysis
All data are expressed as the mean ± standard deviation. The Km, Vmax, and IC50 values were determined via non-linear regression analysis using GraphPad Prism software. All statistical analyses were carried out using GraphPad Prism software (GraphPad Prism 8.0), and Origin (2025).

Data set [11] concerns Hep3B cells. Nature of the data set: Cell-membrane permeability assay in Hep3B cells. The following applies: for Cell-membrane penetration: 20 μM, 1 h. It is filed as in vitro ADME. The method, then: 1.9. Cell-membrane permeability assay
Hep3B cells were cultured with the DMEM media supplemented with 10% fetal bovine serum (FBS) in a humidified culture chamber at 37 °C with 95% air and 5%
CO2. The cells were trypsinized and resuspended with the DMEM basal medium at a […]
200 μL cell suspension was incubated with NCN (20 μM) at 37 °C for 1 h. Then, the cells were centrifuged (1000 rpm, 3 min), resuspended in DMEM media, and centrifuged again. Next, the cells were lysed with ice-cold methanol (200 μL) and centrifuged (20000 g, 30 min, 4 °C). The content of NCN in the supernatant was determined. […]

In data set [12] the target is T3, CYP3A4 (Homo sapiens, UniProt P08684). Nature of the data set: Fluorescence response of NCN to CYP3A4 (NCN 4-hydroxylation). It is filed as biochemical. Also on record: purchased Cypex.
Data set [13] concerns the target T3, CYP3A4. Also on record: endogenous in cells; host or cells: Hep3B. The following applies: cited from earlier work; for Km: CYP3A4, previously reported probe.
Data set [14] in a line: Phase II metabolic stability in HLMs. The class given is in vitro ADME. The following applies: human, liver microsomes, read-out: phase II metabolic stability t1/2. (In general: Microsomes from liver hold many membrane-bound enzymes, among them those of drug oxidation.)
Data set [15] is described as follows: Effect of pH on fluorescence response of HNCN. It is filed as physicochemical.
The target of data set [16] is T4, NCN 4-hydroxylation in HLMs (Homo sapiens, UniProt P08684).
T4 construct: tissue Bioreclamation IVT lot No. X008067; host or cells: pooled human liver microsomes from 50 donors
Nature of the data set: Chemical inhibition assays of NCN 4-hydroxylation in HLMs. It is filed as biochemical.

[17] abbreviates: KCZ 50 mg kg^−1 versus control, after oral NCN.

T2 sequence (P08183 whole entry): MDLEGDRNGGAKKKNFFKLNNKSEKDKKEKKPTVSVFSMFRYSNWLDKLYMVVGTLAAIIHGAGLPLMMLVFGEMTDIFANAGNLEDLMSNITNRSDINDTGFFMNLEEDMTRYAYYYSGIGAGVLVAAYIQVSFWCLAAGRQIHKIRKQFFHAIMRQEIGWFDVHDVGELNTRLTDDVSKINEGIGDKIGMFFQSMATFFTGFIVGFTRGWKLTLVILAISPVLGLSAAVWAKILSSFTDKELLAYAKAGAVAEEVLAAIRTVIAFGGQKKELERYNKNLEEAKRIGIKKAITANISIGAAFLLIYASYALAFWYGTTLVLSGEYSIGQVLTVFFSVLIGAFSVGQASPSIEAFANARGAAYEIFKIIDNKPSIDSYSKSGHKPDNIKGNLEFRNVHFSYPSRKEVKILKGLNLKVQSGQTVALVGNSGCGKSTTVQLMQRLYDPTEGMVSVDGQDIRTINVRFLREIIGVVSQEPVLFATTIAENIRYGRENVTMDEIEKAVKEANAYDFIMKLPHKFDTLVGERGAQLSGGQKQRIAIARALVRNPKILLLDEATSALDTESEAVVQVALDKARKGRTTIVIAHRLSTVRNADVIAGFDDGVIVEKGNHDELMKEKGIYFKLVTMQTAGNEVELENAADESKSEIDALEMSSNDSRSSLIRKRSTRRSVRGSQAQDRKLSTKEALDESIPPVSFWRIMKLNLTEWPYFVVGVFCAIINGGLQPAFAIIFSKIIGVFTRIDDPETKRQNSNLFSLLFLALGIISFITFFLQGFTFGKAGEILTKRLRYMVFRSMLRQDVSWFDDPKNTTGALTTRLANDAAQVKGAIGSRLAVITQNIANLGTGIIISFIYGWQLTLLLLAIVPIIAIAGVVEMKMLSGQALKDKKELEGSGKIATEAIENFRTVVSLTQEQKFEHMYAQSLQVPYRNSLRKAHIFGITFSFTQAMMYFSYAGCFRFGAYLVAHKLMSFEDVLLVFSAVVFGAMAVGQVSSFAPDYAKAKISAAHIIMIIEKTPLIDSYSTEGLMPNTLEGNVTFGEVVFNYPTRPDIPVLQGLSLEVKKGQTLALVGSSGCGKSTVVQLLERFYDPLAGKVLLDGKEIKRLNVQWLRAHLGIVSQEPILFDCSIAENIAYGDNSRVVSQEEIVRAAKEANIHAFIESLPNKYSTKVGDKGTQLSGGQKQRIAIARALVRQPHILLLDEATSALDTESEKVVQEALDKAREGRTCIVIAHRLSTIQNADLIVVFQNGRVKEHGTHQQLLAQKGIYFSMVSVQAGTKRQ
T3 sequence (P08684 whole entry): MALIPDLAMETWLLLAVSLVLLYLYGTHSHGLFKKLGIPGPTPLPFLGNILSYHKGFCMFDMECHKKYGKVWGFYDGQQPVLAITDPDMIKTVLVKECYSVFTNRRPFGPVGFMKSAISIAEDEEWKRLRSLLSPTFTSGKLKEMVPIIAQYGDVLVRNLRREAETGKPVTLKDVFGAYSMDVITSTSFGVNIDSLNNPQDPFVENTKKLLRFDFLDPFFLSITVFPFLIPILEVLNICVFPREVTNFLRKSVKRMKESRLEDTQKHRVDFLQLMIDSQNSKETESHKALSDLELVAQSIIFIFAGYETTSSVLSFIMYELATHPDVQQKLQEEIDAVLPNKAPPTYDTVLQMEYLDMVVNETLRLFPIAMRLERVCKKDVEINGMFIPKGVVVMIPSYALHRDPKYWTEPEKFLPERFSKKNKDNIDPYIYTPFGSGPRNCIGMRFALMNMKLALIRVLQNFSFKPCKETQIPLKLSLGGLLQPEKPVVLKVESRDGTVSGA
T4 sequence (P08684 whole entry): as above
T1 sequence (P08684 whole entry): as above

As usually defined, the Tmax is the time from dosing to the highest level. As usually defined, the bioavailability is dose-corrected exposure relative to a reference, in per cent. High values mean much systemic uptake, low ones little systemic uptake. One may read the microsomal CLint as the rate of metabolic loss divided by the concentration. A high value points to faster metabolism. Consider `O=C1c2cccc3cccc(c23)C(=O)N1CC1CC1` [Probe 5, N-cyclopropylmethyl-1,8-naphthalimide], for which the “fluorescence activation following oxidative metabolism” value in [1] was “noticeable fluorescence activation”. Further, the “toxicity, mortality, morbidity signs” value in data set [2] (oral 100 mg kg^−1, 14 consecutive days) is recorded as “no toxicity, mortality, or morbidity signs were observed”. In [2] (oral 100 mg kg^−1, 14 days), the “histopathological examination of vital organs” value was “no evidence of lesions or inflammation”; the “serum liver, kidney function and other indicators” value was “within normal ranges”; the visceral organ appearance result was “normal in color, size, and shape”. Further, in data set [3], the isozyme specificity entry is “only CYP3A4 could effectively trigger discernible fluorescence enhancement”. Further, in [4] (iv, i.v. 2 mg/kg), the AUC(0-inf) came to 858 ± 120 ng·h/mL, the Cmax was 1860 ± 477 ng/mL, the time to peak (Tmax) is 0.083 h and the half-life was 2.59 ± 0.33 h. In [4] (po, 20 mg/kg i.g. versus 2 mg/kg i.v.), this compound yielded a bioavailability of 12.9%. For the same compound, in data set [4] (po, i.g. 20 mg/kg), the AUC(0-inf) turned out to be 1110 ± 208 ng·h/mL, the Cmax was found to be 275 ± 65 ng/mL, the Tmax came out at 2 ± 0.71 h and the half-life is 1.79 ± 0.41 h. The same compound returned a microsomal CLint in data set [5] of 255 µL/min/mg. In [6], the Cell-membrane penetration worked out at 23.76% and the “enhancement in cell-membrane permeability compared to NEN” value worked out at 23.9 fold. The “intracellular level in the presence of verapamil” value (shortened to “intracellular level”) in data set [7] is reported as “unchanged”. For the same compound, in data set [7] (listed as NCN), the P-gp substrate entry is “No and non-substrates of P-gp”. Further, in data set [8], the metabolites generated entry was “a single oxidative metabolite”. For the same compound, the cytotoxicity entry in data set [9] was “minimal cytotoxicity”. Moreover, in data set [10] (control group (CMC-Na)), the AUC(0-inf) was determined as 1520 ng·h/mL, the Cmax worked out at 207 ng/mL and the half-life is 1.47 h. In data set [10] (with KCZ 50 mg kg^−1 i.g.), this compound had an AUC(0-inf) of 5840 ng·h/mL, a Cmax of 674 ng/mL and a half-life of 2.3 h. Further, in data set [10] (KCZ 50 mg kg^−1 versus control), the “increase of AUC0-inf by KCZ” value is recorded as 3.85 fold and the “increase of Cmax by KCZ” value came out at 3.26 fold. Moreover, in data set [11], the “enhancement in cell-membrane permeability compared to NEN” value was 13.7 fold and the Cell-membrane penetration is 31.45%. In addition, the Detection limit in [12] (CYP3A4 concentration, NCN as substrate) was 0.03 nM. Moreover, the fluorescence enhancement in data set [12] (NCN 10 μM with CYP3A4 2 nM and NADPH, 30 min, around 555 nm) was found to be 125 fold.
For the compound `CC(C)c1nc(CN(C)C(=O)N[C@H](C(=O)N[C@@H](Cc2ccccc2)C[C@H](O)[C@H](Cc2ccccc2)NC(=O)OCc2cncs2)C(C)C)cs1` [ritonavir, reference compound], the cytotoxicity result in [9] is “minimal cytotoxicity”.
For `O=C1c2cccc3cccc(c23)C(=O)N1Cc1ccco1` [Probe 15], in data set [1], the metabolites generated result was “multiple metabolites” and the “fluorescence activation following oxidative metabolism” value was “noticeable fluorescence activation”.
The Km is the concentration of substrate that gives half-maximal velocity. In the case of `O=C1c2cccc3cccc(c23)C(=O)N1Cc1ccc(F)cc1` [Probe F8, N-(4-fluorobenzyl)-1,8-naphthalimide, reference compound], the Cell-membrane penetration in [6] is given as 2.09%. The Km in [13] (ref He et al. 2023) was 0.36 µM. For the same compound, in [13] (previously reported probe, ref He et al. 2023), the Detection limit is recorded as 0.1 nM. In addition, in [7], the P-gp substrate result is “Yes” and the “intracellular level” value is “significantly enhanced”. This compound also gave a Cell-membrane penetration in [11] of 4.82%.
`O=C1c2cccc3c(O)ccc(c23)C(=O)N1CC1CC1` [HNCN, N-cyclopropylmethyl-4-hydroxy-1,8-naphthalimide]: the half-life in data set [14] was found to be 1.36 h. Also, in data set [7], the P-gp substrate result is recorded as “non-substrates of P-gp” and the “intracellular level” value is “unchanged”. In addition, in data set [9], the cytotoxicity result is “minimal cytotoxicity”. In [10] (control group (CMC-Na)), this compound showed an AUC(0-inf) of 961 ng·h/mL, a Cmax of 101 ng/mL and a half-life of 1.77 h. Also, in [10] (with KCZ 50 mg kg^−1 i.g.), the AUC(0-inf) was determined as 245 ng·h/mL, the Cmax turned out to be 32 ng/mL and the half-life is 2.88 h. Also, in [10] (setting [17]), the “decrease of Cmax by KCZ” value turned out to be 3.16 fold and the “reduction of AUC(0-inf) by KCZ” value was 3.92 fold. In addition, in data set [15], the “pH range of stable fluorescence signals” value is given as 7.0–11.0.
For `O=c1ccc2ccc(O)cc2o1` [7-hydroxycoumarin, reference compound], the half-life in [14] worked out at 0.287 h.
Turning to `Cc1ccc(-c2c(-c3nn(C)c4ncnc(N5CC[C@H](N6CCCCC6)C5)c34)cnn2C)cc1` [CYP3cide], in data set [16], the “inhibition of NCN 4-hydroxylation” value was “completely blocking”.
Same read-out and setting: as for `Nn1nnc2ccccc21` [ABT, 1-aminobenzotriazole], the entry is “completely blocking”.
`CCN1C(=O)c2cccc3cccc(c23)C1=O` [NEN, N-ethyl-1,8-naphthalimide, reference compound]: the Cell-membrane penetration in [6] is reported as 0.99%. For the same compound, in [13] (ref Ning et al. 2019), the Km was 59.8 µM. Moreover, the Vmax in data set [13] (previously reported probe, ref Ning et al. 2019) is reported as 2.18 nmol/min/nmol. For the same compound, in data set [7], the P-gp substrate result was “Yes” and the “intracellular level” value is reported as “significantly enhanced”. Also, the Cell-membrane penetration in data set [11] is 2.29%.
Turning to `O=C1c2cccc3cccc(c23)C(=O)N1CC1CCC1` [Probe 6], the “fluorescence activation following oxidative metabolism” value in data set [1] is “noticeable fluorescence activation”. Moreover, the metabolites generated entry in data set [8] is “multiple metabolites”.

Values taken from PMC12101129, “An optimized CYP3A4-activatable fluorogenic sensor for in situ functional imaging and multi-dimensional inhibitor assessment” (Chemical Science, 2025).
